In paper PMC8286840, “Identifying SARS-CoV-2 antiviral compounds by screening for small molecule inhibitors of Nsp3 papain-like protease” (Biochemical Journal, 2021) one finds remaining activity data, which are given here for 31 compounds.

For assay [1], the target named is T1, SARS-CoV-2 PLpro (nsp3 1564–1878) (Severe acute respiratory syndrome coronavirus 2, UniProt P0DTD1). As to the kind of experiment: biochemical. Also noted: FRET-quenched peptide (Pro3) cleavage by PLpro, 10 min pre-incubation, slope over 20 min, normalised to no-compound control. The conditions noted are these: low concentration screen, read-out: % of control remaining.

For assay [2], the target named is T1, SARS-CoV-2 PLpro (nsp3 1564–1878). The experiment in a line: biochemical. Also noted: FRET-quenched peptide (Pro3) cleavage by PLpro, 10 min pre-incubation, slope over 20 min, normalised to no-compound control. The conditions noted are these: high concentration screen, read-out: % of control remaining.

Structures can show the parent of a compound that is named as a salt. Where two headings read alike, the source gives them in different places. Where a SMILES comes first, the peptide text is derived from it. [ ]: non-standard residue; d: D form. The star is where a group is joined. Benzoyl(4-tBu) = CC(C)(C)c1ccc(C(=O)*)cc1; Lys(Et2) = CCN(CC)CCCC[C@H](N)C(=O)O

As for `COc1ccc2c(c1)CC[C@@H]1[C@@H]2CC[C@]2(C)[C@@H](NCCCCCCN3C(=O)C=CC3=O)CC[C@@H]12` [U-73122 hydrate], the remaining activity at 1.25 µM in assay [1] (Well no.=5562) was found to be 93%. Besides, the remaining activity at 3.75 µM in assay [2] (Well no.=5562) was found to be 93.8%.
For the compound `COc1ccc2c(c1)CC[C@@H]1[C@@H]2CC[C@]2(C)[C@@H](NCCCCCCN3C(=O)C=CC3=O)CC[C@@H]12` [U-73122], the remaining activity at 1.25 µM in assay [1] (Well no.=1332) was determined as 103%. The remaining activity at 3.75 µM in assay [2] (Well no.=1332) came to 105%.
For the compound `COc1ccc2c(c1)CC[C@@H]1[C@@H]2CC[C@]2(C)[C@@H](NCCCCCCN3C(=O)CCC3=O)CC[C@@H]12` [U-73343], the remaining activity at 1.25 µM in assay [1] (Well no.=1380) was 101%. Moreover, in assay [2] (Well no.=1380), the remaining activity at 3.75 µM was found to be 102%.
Consider `C[C@]12C=CC(=O)C=C1CC[C@@H]1C2=CC[C@]2(C)[C@@H](C(=O)CN3CCN(c4cc(N5CCCC5)nc(N5CCCC5)n4)CC3)CC[C@@H]12` [U-74389G maleate], for which the remaining activity at 1.25 µM in assay [1] (Well no.=1236) is 104%. Besides, the remaining activity at 3.75 µM in assay [2] (Well no.=1236) was determined as 106%.
On to `Cc1c(C)c2c(c(C)c1O)CCC(C)(CN1CCN(c3cc(N4CCCC4)nc(N4CCCC4)n3)CC1)O2` (stereo not shown) [U-83836 dihydrochloride], for which the remaining activity at 1.25 µM in assay [1] (Well no.=1284) stood at 105%. The remaining activity at 3.75 µM in assay [2] (Well no.=1284) turned out to be 106%.
Take `CCCN(CCC)C1Cc2cc(OC)c(OC)cc2C1` [U-99194A maleate]: the remaining activity at 1.25 µM in assay [1] (Well no.=1192) stood at 100%. Further, the remaining activity at 3.75 µM in assay [2] (Well no.=1192) stood at 99.6%.
As for `CC(C)Oc1cccnc1N(C)C1CCN(Cc2ccccc2)CC1` [U-101958 maleate], the remaining activity at 1.25 µM in assay [1] (Well no.=1526) turned out to be 93.8%. Also, the remaining activity at 3.75 µM in assay [2] (Well no.=1526) was 92.1%.
Regarding `O=S(=O)(NCCN1CCNCC1)c1ccc(NC2CCCCC2)c(NCc2ccccc2)c1` [UAMC-3203 hydrochloride], the remaining activity at 1.25 µM in assay [1] (Well no.=6780) was 105%. The remaining activity at 3.75 µM in assay [2] (Well no.=6780) came out at 102%.
Take `CN[C@@H]1C[C@H]2O[C@@](C)([C@@H]1OC)n1c3ccccc3c3c4c(c5c6ccccc6n2c5c31)C(=O)N[C@H]4O` [UCN-01]: the remaining activity at 1.25 µM in assay [1] (Well no.=2587) is 95.7%. The remaining activity at 3.75 µM in assay [2] (Well no.=2587) amounted to 97.5%.
On to `Brc1c(NC2=NCCN2)ccc2nccnc12` [UK 14,304 (tartrate)], for which, in assay [1] (Well no.=6572), the remaining activity at 1.25 µM came out at 98.5%. For the same compound, in assay [2] (Well no.=6572), the remaining activity at 3.75 µM came to 102%.
Take `Brc1c(NC2=NCCN2)ccc2nccnc12` [UK 14,304]: the remaining activity at 1.25 µM in assay [1] (Well no.=1238) turned out to be 98.9%. Besides, the remaining activity at 3.75 µM in assay [2] (Well no.=1238) was 97.9%.
Turning to `NC(=O)c1noc([C@H](CCCC2CCCCC2)CC(=O)NO)n1` [UK 383367], the remaining activity at 1.25 µM in assay [1] (Well no.=8384) turned out to be 90.4%. Besides, the remaining activity at 3.75 µM in assay [2] (Well no.=8384) is 90.6%.
Consider `NC(=O)c1noc([C@H](CCCC2CCCCC2)CC(=O)NO)n1` [UK-383,367], for which the remaining activity at 1.25 µM in assay [1] (Well no.=5839) was 102%. The remaining activity at 3.75 µM in assay [2] (Well no.=5839) was determined as 103%.
In the case of `O=C(O)CSc1cc(NS(=O)(=O)c2ccc(Br)cc2)c2ccccc2c1O` [UMI-77], the remaining activity at 1.25 µM in assay [1] (Well no.=6454) turned out to be 95.1%. Also, the remaining activity at 3.75 µM in assay [2] (Well no.=6454) worked out at 93.1%.
For the compound `CN(C)CCN1C(=O)c2cccc3cc(NC(N)=O)cc(c23)C1=O` [UNBS5162], the remaining activity at 1.25 µM in assay [1] (Well no.=6953) was found to be 98.3%; in assay [1] (Well no.=8453), 109%. Further, the remaining activity at 3.75 µM in assay [2] (Well no.=6953) is 98%; in assay [2] (Well no.=8453) it was 112%.
Regarding `COc1cc2c(NC3CCN(C(C)C)CC3)nc(N3CCC(F)(F)CC3)nc2cc1OCCCN1CCCC1` [UNC0642], the remaining activity at 1.25 µM in assay [1] (Well no.=7187) was 92.5%. Besides, the remaining activity at 3.75 µM in assay [2] (Well no.=7187) amounted to 86.5%.
As to `O=C(c1ccc(C(=O)N2CCC(N3CCCC3)CC2)c(Nc2ccccc2)c1)N1CCC(N2CCCC2)CC1` [UNC1215], the remaining activity at 1.25 µM in assay [1] (Well no.=5417) came to 98.6%. Moreover, the remaining activity at 3.75 µM in assay [2] (Well no.=5417) amounted to 100%.
As for `CCN(CC)CCCC[C@H](NC(=O)[C@H](CC(C)C)NC(=O)[C@H](C)NC(=O)[C@H](Cc1ccccc1)NC(=O)c1ccc(C(C)(C)C)cc1)C(=O)N[C@@H](CO)C(=O)OC` [UNC3866] ({Benzoyl(4-tBu)}-FAL[Lys(Et2)]S-OMe), in assay [1] (Well no.=8220), the remaining activity at 1.25 µM turned out to be 101%. For the same compound, in assay [2] (Well no.=8220), the remaining activity at 3.75 µM was determined as 103%.
Take `O=C(COc1cccc2c(=O)[nH]ccc12)c1ccccc1` [UPF 1069]: in assay [1] (Well no.=4828), the remaining activity at 1.25 µM was determined as 94.8%. Besides, the remaining activity at 3.75 µM in assay [2] (Well no.=4828) is 96.4%.
Take `NC(=O)c1cccc(-c2cccc(OC(=O)NC3CCCCC3)c2)c1` [URB597]: the remaining activity at 1.25 µM in assay [1] (Well no.=5889) was 109%; in assay [1] (Well no.=8102) it was 95.4%. Also, the remaining activity at 3.75 µM in assay [2] (Well no.=5889) came to 109%; in assay [2] (Well no.=8102) it was 94.7%.
In the case of `O=C(Nc1cccc(-c2ccccc2)c1)OC1CCCCC1` [URB602], in assay [1] (Well no.=5392), the remaining activity at 1.25 µM came to 99.5%. Moreover, the remaining activity at 3.75 µM in assay [2] (Well no.=5392) came to 105%.
For the compound `CC(C)N1CCC(N2CCCN(c3cccc(C(=O)Nc4ccncc4)n3)CC2)CC1` [USL311], in assay [1] (Well no.=8707), the remaining activity at 1.25 µM came out at 99.4%. Further, the remaining activity at 3.75 µM in assay [2] (Well no.=8707) was determined as 103%.
In the case of `O=C1/C(=C/c2ccc([N+](=O)[O-])cc2)CS(=O)(=O)C/C1=C\c1ccc([N+](=O)[O-])cc1` [Ubiquitin Isopeptidase Inhibitor I, G5], the remaining activity at 1.25 µM in assay [1] (Well no.=6388) turned out to be 93.2%. In assay [2] (Well no.=6388), the remaining activity at 3.75 µM was found to be 95.7%.
With `CC(=O)[C@@]1(O)CC[C@H]2[C@@H]3CCC4=CC(=O)CCC4=C3[C@@H](c3ccc(N(C)C)cc3)C[C@@]21C` [Ulipristal], the remaining activity at 1.25 µM in assay [1] (Well no.=4929) is 105%. The remaining activity at 3.75 µM in assay [2] (Well no.=4929) was 104%.
Consider `O=C(O)CCCCCCCCCC(=O)O` [Undecanedioic acid], for which the remaining activity at 1.25 µM in assay [1] (Well no.=6785) came to 102%. Moreover, in assay [2] (Well no.=6785), the remaining activity at 3.75 µM was determined as 99.4%.
Regarding `CCCCCCCCCCC(=O)O` [Undecanoic acid], the remaining activity at 1.25 µM in assay [1] (Well no.=4252) came out at 95.5%. The remaining activity at 3.75 µM in assay [2] (Well no.=4252) stood at 91.9%.
`CC(C)(C)C(O)/C(=C\c1ccc(Cl)cc1)n1cncn1` (stereo not shown) [Uniconazole]: the remaining activity at 1.25 µM in assay [1] (Well no.=8248) stood at 104%. In addition, the remaining activity at 3.75 µM in assay [2] (Well no.=8248) amounted to 102%.
Take `O=c1cc[nH]c(=O)[nH]1` [Uracil]: in assay [1] (Well no.=7023), the remaining activity at 1.25 µM came to 103%. Further, the remaining activity at 3.75 µM in assay [2] (Well no.=7023) was 102%.
On to `COc1ccccc1N1CCN(CCCNc2cc(=O)n(C)c(=O)n2C)CC1` [Urapidil hydrochloride], for which the remaining activity at 1.25 µM in assay [1] (Well no.=1476) is 98.2%. For the same compound, the remaining activity at 3.75 µM in assay [2] (Well no.=1476) came out at 97.2%.
In the case of `O=c1ccn([C@@H]2O[C@H](CO)[C@@H](O)[C@H]2O)c(=O)[nH]1` [Uridin], in assay [1] (Well no.=8849), the remaining activity at 1.25 µM was found to be 101%. For the same compound, the figures for the remaining activity at 3.75 µM in assay [2] (Well no.=6399) and in assay [2] (Well no.=8849) were 106% and 94.8%, respectively.
As to `O=c1ccn([C@@H]2O[C@H](COP(=O)(O)OP(=O)(O)O)[C@@H](O)[C@H]2O)c(=O)[nH]1` [Uridine 5'-diphosphate sodium], the remaining activity at 1.25 µM in assay [1] (Well no.=1188) is 104%. The remaining activity at 3.75 µM in assay [2] (Well no.=1188) was found to be 104%.
